Assay results published in patent US20240390355A1, “IRHOM2 INHIBITORS AND USES THEREOF” (NEW YORK SOCIETY FOR THE RELIEF OF THE RUPTURED AND …, priority 2021, published 2024).

Columns and labels:
Format in all cases: cell-based
[1] = system: TGFα release from HEK-293 cells; assay: Counter screen (Example 4a): PMA-stimulated TGFα release from HEK-293 cells, AP readout; conditions: Homo sapiens, HEK293, HEK-293 cells expressing TGFα-AP, PMA 100 ng/mL, 2 h, read-out: Counter Screen XC50 TGFα
Procedure: A tertiary counterscreen was also performed to monitor the release of TGFα, which is a substrate of iRhom1/ADAM17 and iRhom2/ADAM17, so its release should not be blocked by an iRhom2-selective inhibitor (Maretzky T et al. (July 2013), “iRhom2 controls the substrate selectivity of stimulated ADAM17-dependent ectodomain shedding”, PNAS 110(28): 11433-11438; and Li X et al. (May 2015), “iRhoms 1 and 2 are essential upstream regulators of ADAM17-dependent EGFR signaling”, PNAS 112(19): 6080-6085).
(§1) First, expression plasmids for alkaline phosphatase (AP)-fused KL2 and TGFα were designed and generated through gene synthesis followed by subcloning into the pcDNA3.1(+)/Hygro expression vector. […] Subsequently, DNA amplifications were performed to obtain sufficient amounts of the expression vectors. The quality of DNA and gene sequences were confirmed through restriction digest and Sanger sequencing. In parallel, cell culture of THP-1 and HEK-293 cells was initiated. Master and working cell banks were prepared. Both cell lines were scaled up and transfected with the respective constructs by electroporation. During cell culturing, cell density and viability were monitored to ensure optimal conditions for the transfections. After PMA stimulation, AP-coupled KL2 or TGFα were detected by measurement of AP activity in the supernatant. […] In contrast, THP-1 cells turned out to be not a suitable transfection host resulting in a loss of cell viability after transfection. The decision was made to proceed with HEK-293 for both selectivity assays and to establish polyclonal cell lines stably expressing AP-coupled KL2 or TGFα.
(§2) After electroporation, cells were further cultured in presence of selection antibiotics, hygromycin B, to generate stably transfected polyclonal cell pools. For both assays, KL2 and TGFα shedding, the respective selected pool turned out to be suitable. Final assay conditions were determined for the selected pools. For all experiments, batimastat (30 μM) was used as positive control for full inhibition of KL2 or TGFα shedding.
(§3) 60 μL of cells (20,000/well) were added to a sterile 384-well plate. After incubation overnight at 37° C. (5% CO2), 50 μL medium were removed and 20 μL of prediluted compounds were added to the cells. After incubation for 15 min, 20 μL of PMA (100 ng/mL final conc.) were added. The cells were incubated for 2 h at 37° C. (5% CO2). Then, 20 μL of the supernatant was transferred to a fresh plate and 20 μL of pNPP (5 mM final conc.) was added. The AP reaction was performed for 1 h at RT. The reaction was stopped by addition of 20 μL of NaOH (1 M final conc.) and the absorbance of pNP was measured at 405 nm.

[2] = system: KL2 release from HEK-293 cells; assay: Secondary screen (Example 3a): PMA-stimulated KL2 release from HEK-293 cells, AP readout; conditions: Homo sapiens, HEK293, HEK-293 cells expressing KL2-AP, PMA 500 ng/mL, 2 h, read-out: Secondary Screen XC50 KL2
Procedure: (§4) Two separate screens to identify novel small molecule inhibitors of iRhom2/ADAM17 activity were developed. […] Therefore, the primary screen for small molecule inhibitors of iRhom2/ADAM17 was a screen for inhibitors that blocked the release of TNFα from LPS-stimulated THP-1 human myeloid cells, a process that depends on iRhom2 and ADAM17. Since the release of TNFα from THP-1 cells can be blocked at many stages of the LPS/TLR4/iRhom2/ADAM17 pathway, a secondary screen was performed for another iRhom2/ADAM17 selective substrate, Kit-ligand 2 (KL-2) (Maretzky T et al. (July 2013), “iRhom2 controls the substrate selectivity of stimulated ADAM17-dependent ectodomain shedding”, PNAS 110(28): 11433-11438) in a different human cell type, human embryonic kidney cells (HEK 293).
as §1, §2
as §3, with “of cells (40,000/well) were added” for “of cells (20,000/well) were added”, “of PMA (500 ng/mL final” for “of PMA (100 ng/mL final”, “was added. AP reaction” for “was added. The AP reaction”

[3] = system: TNFα release from THP-1 cells; assay: Primary screen (Example 1a): LPS-stimulated TNFα release from THP-1 cells, HTRF; conditions: Homo sapiens, 100 ng/mL LPS, 3 h, normalised to 50 μM Batimastat, read-out: Primary Screen XC50 TNFα
Procedure: as §4
THP-1 cells were plated in 384 or 1,536 wells and transferred on the ultra-high throughput screening (uHTS) platform Mark III, and TNFα shedding was initiated by LPS stimulation of THP-1 cells. The extent of released TNFα was detected with the corresponding HTRF antibodies labeled with europium cryptate (donor) and d2 (acceptor). The HTRF signal was generated by proximity of europium cryptate and d2. All detection reagents were purchased from Cisbio. TNFα detection was performed according to the manufacturer's protocol (Product Insert for Cisbio TNFα (h) Kit Part #62HTNFAPEG & 62HTNFAPEH;
7.5 nL compound and controls in DMSO [10 μM in assay; 0.25% DMSO in 3 [μL Assay] were dissolved in 2 μL cell suspension [2.4E6/mL; 4800 cells/well; culture w/o PenStrep], pre-incubated at 37° C., 5% CO2, for 15 min with 1 μL LPS [100 ng/mL in 3 μL assay]. The cells were incubated at 37° C., 5% CO2, for 3 h with 2 μL of the HTRF-mix [1:300 f.c.]. After an incubation at room temperature for 2 h or longer, the HTRF readout was performed. Then data evaluation for normalization against the 50 μM Batimastat control (=100% […]) was applied. As an additional control, 300 nM Batimastat was used to monitor performance of cells and assay sensitivity over time.

| SMILES | IC50 [1] [µM] | IC50 [2] [µM] | IC50 [3] [µM] |
| --- | --- | --- | --- |
| Cc1ccccc1C(=O)N1CCC(Cc2ccccc2)CC1 [Compound 1] | > 128 | 2.6 | 10.2 |
| O=C(c1cccs1)N1CCC(Cc2ccccc2)CC1 [Compound 2] | > 128 | > 128 | < 0.802 |
| Cc1ccccc1C(=O)N1CCN(Cc2ccccc2)CC1 [Compound 3] | > 128 | > 128 | 12.3 |
| O=C(c1c(Cl)cccc1Cl)N1CCN(Cc2ccc3c(c2)OCO3)CC1 [Compound 4] | > 128 | > 128 | 30.8 |
| Cc1ccccc1C(=O)N1CCN(Cc2cccc(Cl)c2)CC1 [Compound 5] | > 128 | > 128 | 1.4 |
| O=C(c1ccccc1F)N1CCN(Cc2cccc(Br)c2)CC1 [Compound 6] | > 128 | > 128 | 12.4 |
| O=C(c1c(F)cccc1F)N1CCN(Cc2ccc(Cl)s2)CC1 [Compound 7] | > 128 | > 128 | 14.1 |
| Cc1csc(CN2CCN(C(=O)c3c(F)cccc3Cl)CC2)n1 [Compound 8] | > 128 | > 128 | 1.9 |
| O=C(c1ccccc1F)N1CCN(Cc2nc(C3CC3)cs2)CC1 [Compound 9] | > 128 | > 128 | 27.8 |
| COc1cccc(OC)c1C(=O)N1CCN(Cc2cccc3ccccc23)CC1 [Compound 10] | > 128 | 67.7 | 22.6 |
| COc1cccc(OC)c1C(=O)N1CCN(Cc2cccc(Br)c2)CC1 [Compound 11] | > 128 | > 128 | 24.7 |
| O=C(NN1CCN(Cc2ccccc2)CC1)C12CC3CC(CC(C3)C1)C2 [Compound 12] | > 128 | > 128 | 8.9 |
| Cc1ccccc1C(=O)N1CCN(c2ccc(NC(=O)c3ccco3)cc2Cl)CC1 [Compound 13] | > 128 | 18 | 3.5 |
| Cc1ccccc1C(=O)N1CCN(c2ccc(NC(=O)c3cccnc3)cc2Cl)CC1 [Compound 14] | > 128 | 12.8 | < 0.802 |
| CCC1CN(C(=O)c2ccc3cc[nH]c3c2)CCC(=O)N1Cc1ccccc1 (stereo not drawn) [Compound 15] | > 128 | > 128 | < 0.802 |
| CCC1CN(C(=O)c2ccc3c(c2)CCO3)CCC(=O)N1Cc1ccccc1 (stereo not drawn) [Compound 16] | > 128 | > 128 | 15.4 |
| Cc1ccc(F)c(C(=O)N2CCc3nnc(CCc4ccccc4)n3CC2)c1F [Compound 17] | > 128 | > 128 | 15.2 |
| CCC(Cn1cnc(-c2ccccc2)c1-c1ccncc1)N1CCOCC1 (stereo not drawn) [Compound 18] | > 128 | > 128 | 21.8 |
| Cc1ccn(CCCn2cnc(-c3ccccc3)c2-c2ccncc2)n1 [Compound 19] | > 128 | > 128 | 1.2 |

| SMILES | IC50 [1] [µM] | IC50 [2] [µM] | IC50 [3] [µM] |
| --- | --- | --- | --- |
| c1ccc(-c2ncn(CCCc3cccnc3)c2-c2ccncc2)cc1 [Compound 20] | > 128 | > 128 | < 0.802 |
| Nc1cccc(-c2cnc3ccc(NCc4cccs4)nn23)c1 [Compound 21] | > 128 | 120 | 1.3 |
| CNc1ccc2ncc(-c3cccc(O)c3)n2n1 [Compound 22] | > 128 | 8.8 | 27.8 |
| COCC(=O)N1CCCc2ccc(NC(=O)Nc3ccc(F)cc3)cc21 [Compound 23] | > 128 | > 128 | 3.7 |
| COc1ccc(Nc2nc(NCCCO)c3ccccc3n2)cc1 [Compound 24] | > 128 | > 128 | 1.1 |
| CC(=O)c1cccc(Nc2nc(NCC3CCCO3)c3ccccc3n2)c1 (stereo not drawn) [Compound 25] | > 128 | 55 | 5.6 |
| Fc1ccc(Nc2nc3nonc3nc2Nc2ccc(F)cc2F)c(F)c1 [Compound 26] | 71.2 | 22.3 | 1.4 |
| C=C(C)Cn1c(=O)nc(N)c2c(-c3ccc(OC)cc3)csc21 [Compound 27] | > 128 | > 128 | < 0.802 |
| CCCn1c(=O)nc(N)c2c(-c3ccc(OC)cc3)csc21 [Compound 28] | > 128 | > 128 | 1.7 |
| Cc1ccc(-n2ncc3c(NC4CCCCC4)ncnc32)c(C)c1 [Compound 29] | > 128 | > 128 | < 0.802 |
| C/C(=C\c1c(C)[nH]c2ccccc12)[N+](=O)[O-] [Compound 30] | > 128 | 12.1 | 24.3 |
| Cc1n[nH]c2c1C(c1ccccc1OC(F)F)C(C#N)=C(N)O2 (stereo not drawn) [Compound 31] | > 128 | 32.2 | 34.5 |
| COc1ccc(-c2cnc3sc(NCCCO)nn23)cc1OC [Compound 32] | > 128 | 66.5 | 68.7 |
| O=C(CCn1sc2ccccc2c1=O)Nc1ccc2cc[nH]c2c1 [Compound 33] | 24.1 | 6 | 5.1 |
| CCC(C)NC(=O)c1cc(C(=O)c2ccccc2C)c[nH]1 (stereo not drawn) [Compound 34] | > 128 | > 128 | 10.2 |
| O=C(c1c[nH]c(-c2nnc3n2CCCCC3)c1)c1cc(F)ccc1O [Compound 35] | > 128 | > 128 | 28.2 |
| c1ccc(-c2ncn(CCc3c[nH]cn3)c2-c2ccncc2)cc1 [Compound 36] | > 128 | > 128 | 19 |
| CC(C)c1nccc(-c2c(-c3ccccc3)ncn2CCc2c[nH]cn2)n1 [Compound 37] | > 128 | > 128 | 4.99 |
| OC(Cc1ccccc1)Cn1cnc(-c2ccccc2)c1-c1cccnc1 (stereo not drawn) [Compound 38] | > 128 | > 128 | 108 |
